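Following 48 hours of exposure in 96-well plates, responses at five concentrations were used to interpolate endpoints linearly. GI50 = concentration required for 50% inhibition of growth. TGI denotes the concentration required for complete inhibition of growth.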
Key:
Assay in all cases: NCI tumour cell line growth inhibition, 48 h
OVCAR-4 ovarian = tested on: OVCAR-4 ovarian
SK-MEL-5 melanoma = tested on: SK-MEL-5 melanoma
786-0 renal = tested on: 786-0 renal
HCC-2998 colon = tested on: HCC-2998 colon
NCI-H226 lung = tested on: NCI-H226 lung
DU-145 prostate = tested on: DU-145 prostate
NCI-H23 lung = tested on: NCI-H23 lung
SNB-19 CNS = tested on: SNB-19 CNS
HOP-62 NSCLC = tested on: HOP-62 NSCLC
HT29 colon = tested on: HT29 colon

SMILES | GI50 (OVCAR-4 ovarian) [µM] | TGI (OVCAR-4 ovarian) [µM] | GI50 (SK-MEL-5 melanoma) [µM] | TGI (SK-MEL-5 melanoma) [µM] | GI50 (786-0 renal) [µM] | TGI (786-0 renal) [µM] | GI50 (HCC-2998 colon) [µM] | TGI (HCC-2998 colon) [µM] | GI50 (NCI-H226 lung) [µM] | TGI (NCI-H226 lung) [µM] | GI50 (DU-145 prostate) [µM] | TGI (DU-145 prostate) [µM] | GI50 (NCI-H23 lung) [µM] | TGI (NCI-H23 lung) [µM] | GI50 (SNB-19 CNS) [µM] | TGI (SNB-19 CNS) [µM] | GI50 (HOP-62 NSCLC) [µM] | TGI (HOP-62 NSCLC) [µM] | GI50 (HT29 colon) [µM] | TGI (HT29 colon) [µM]
CN(C)/C=C/c1nnnn1-c1ccc(Cl)cc1 | 28.2 | 80.4 | 15 | 35.4 | 14.8 | 56.3 | 18.3 | 34.5 | 15.6 | 44.3 | 14.2 | 64.3 | 11.8 | 29.8 | 29 | 92.9 | 11.4 | 46.9 | 20.2 | 45
COc1ccc(-c2nsc3c2NC(=O)CC3c2ccc3c(c2)OCO3)cc1 (stereo not given) | 6.03 | > 100 | 1.46 | 42.2 | 3.24 | > 100 | 1.6 | 6.37 | 7.28 | > 100 | 2.78 | 53.1 | 3.2 | > 100 | 48.7 | > 100 | 1.92 | > 100 | 0.414 | 11.3
COC(=O)Nc1nc2ccc(Oc3ccc(NC(=O)Nc4cccc(Br)c4)cc3)cc2[nH]1 | 3.39 | 7.42 | 0.948 | 11.9 | 3.9 | > 24.1 | 6.04 | > 25 | 7.59 | > 25 | 3.15 | > 14.6 | 3.23 | > 17.1 | 8.31 | > 25 | 1.24 | 8.67 | 0.7 | 3.28
CC/C=C\C/C=C\C[C@H](O)C/C=C1/C(=O)C=C[C@H]1C/C=C\CCC(=O)OC | > 8.25 | > 8.25 | 1.94 | 6.21 | 3.53 | > 8.25 | 1.6 | 3.39 | 2.32 | > 8.25 | 4.95 | > 8.25 | 2.06 | 6.67 | 7.76 | > 8.25 | 3.17 | > 8.25 | 2.68 | 6.79
O=C1c2ccccc2-c2c1c1ccc([N+](=O)[O-])cc1c(=O)n2CCNCCCNCCn1c2c(c3ccc([N+](=O)[O-])cc3c1=O)C(=O)c1ccccc1-2 | 0.215 | 4.92 | 0.347 | 7.51 | 0.0515 | 2.92 | 0.992 | 13.3 | 0.125 | 3.16 | 0.96 | 21.1 | 0.0682 | 6.97 | 0.126 | 4.94 | 0.742 | 7.51 | 0.0105 | 5.52
O=C(Cn1c(=O)c(-c2ccccc2)nc2ccccc21)c1cccnc1 | 46.2 | > 100 | > 100 | > 100 | > 100 | > 100 | > 100 | > 100 | > 100 | > 100 | > 100 | > 100 | > 100 | > 100 | > 100 | > 100 | > 100 | > 100 | > 100 | > 100
COc1ccc(Nc2ncccc2/C=C/C(=O)c2cc(OC)c(OC)c(OC)c2)cc1 | 1.62 | 3.47 | 1.39 | 2.68 | 1.69 | 3.22 | 1.68 | 3.09 | 1.37 | 2.81 | 1.59 | 2.93 | 1.72 | 3.79 | 2.14 | 6.33 | 1.78 | 3.75 | 1.6 | 3.16
COc1cc([C@@H]2c3cc4c(cc3C(Br)[C@H]3COC(=O)[C@H]23)OCO4)cc(OC)c1OC (stereo not given in full) | 0.541 | > 100 | 0.209 | 0.488 | 0.307 | 33.8 | 0.255 | 0.694 | 0.721 | > 100 | 0.252 | 0.646 | 0.321 | > 100 | 0.553 | > 100 | 0.436 | > 100 | 0.289 | 2.85

From PubChem BioAssay (NCI)
